Patent publication US10508077B2 (FORMA Therapeutics, Inc., priority 2015, dated 2019)

Molecular target: T1, Full length human recombinant HDAC8 protein (Homo sapiens, UniProt Q9BY41)
T1 construct: Full length human recombinant HDAC8 protein was expressed in baculoviral system; made in house
T1 sequence (Q9BY41 1-377): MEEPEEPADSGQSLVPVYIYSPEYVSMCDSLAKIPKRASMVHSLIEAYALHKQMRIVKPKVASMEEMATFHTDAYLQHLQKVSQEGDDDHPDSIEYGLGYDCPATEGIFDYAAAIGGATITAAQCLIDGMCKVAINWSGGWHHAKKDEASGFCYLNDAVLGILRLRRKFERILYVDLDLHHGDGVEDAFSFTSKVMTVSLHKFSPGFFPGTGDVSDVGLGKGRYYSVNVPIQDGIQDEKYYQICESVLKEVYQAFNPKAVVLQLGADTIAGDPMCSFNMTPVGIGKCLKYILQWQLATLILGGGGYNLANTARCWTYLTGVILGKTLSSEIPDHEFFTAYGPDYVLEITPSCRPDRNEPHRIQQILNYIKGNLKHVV
Experiment: In vitro histone deacetylase assay: enzymatic HDAC8 assay, electrophoretic mobility shift
Type: biochemical
Details: substrate RHKK(Ac)-NH2, 1 nM enzyme, compounds listed under IC50 range headings
How it was run: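 Readout was microfluidic mobility-shift separation of deacetylated product from fluorescent RHKK(Ac)-NH2 substrate (2 µM), after reaction with 1 nM recombinant full-length human HDAC8 at 25 °C, pH 7.5, stopped with SDS. Twelve 3-fold-spaced concentrations tested; product/sum ratios normalized to controls and fitted with a 4-parameter model for IC50.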

Row | SMILES | IC50
1 | O=C(/C=C/c1ccccc1N1CCN(Cc2ccc(C(F)(F)F)nc2)CC1)NO [Example I-165, (E)-N-hydroxy-3-(2-(4-((6-(trifluoromethyl)pyridin-3-yl)methyl)piperazin-1-yl)phenyl)acrylamide] | < 1000 nM
2 | CC(C)(C)OC(=O)N1CCC2(CC1)CCN(c1ccccc1/C=C/C(=O)NO)C2 [Example I-111, tert-butyl (E)-2-(2-(3-(hydroxyamino)-3-oxoprop-1-en-1-yl)phenyl)-2,8-diazaspiro[4.5]decane-8-carboxylic] | < 1000 nM
3 | O=C(/C=C/c1ccccc1N1CCN(C(=O)C2CCCO2)CC1)NO (centres unmarked) [Example I-19, (E)-N-hydroxy-3-(2-(4-(tetrahydrofuran-2-carbonyl)piperazin-1-yl)phenyl)acrylamide] | 1000 to 10000 nM
4 | CC1(CCC(=O)NC2CCN(c3ccccc3/C=C/C(=O)NO)CC2)CC1 [Example I-143, (E)-N-hydroxy-3-(2-(4-(3-(1-methylcyclopropyl)propan-amido)piperidin-1-yl)phenyl)acrylamide] | < 1000 nM
5 | Cc1nc(CC(=O)NC2CCN(c3ccccc3/C=C/C(=O)NO)CC2)c(C)s1 [Example I-158, (E)-3-(2-(4-(2-(2,5-dimethylthiazol-4-yl)acetamido)piperidin-1-yl)phenyl)-N-hydroxyacrylamide] | < 1000 nM
6 | COc1ccc(OC)c(S(=O)(=O)N2CCN(c3ccccc3/C=C/C(=O)NO)CC2)c1 [Example I-34] | 1000 to 10000 nM
7 | Cn1nc(C(F)(F)F)cc1-c1ccc(C(=O)Nc2ccccc2/C=C/C(=O)NO)s1 [Example I-78, (E)-N-(2-(3-(hydroxyamino)-3-oxoprop-1-en-1-yl)phenyl)-5-(1-methyl-3-(trifluoromethyl)-1H-pyrazol-5-yl)thiophene-2-carboxamide] | < 1000 nM
8 | O=C(/C=C/c1ccccc1NCc1cccc(C(F)(F)F)c1)NO [Example I-46, (E)-N-hydroxy-3-(2-((3-(trifluoromethyl)benzyl)amino)phenyl)acrylamide] | < 1000 nM
9 | O=C(/C=C/c1ccccc1N1CCN(Cc2ccccc2F)CC1)NO [Example I-164, (E)-3-(2-(4-(2-fluorobenzyl)piperazin-1-yl)phenyl)-N-hydroxyacrylamide] | < 1000 nM
10 | O=C(/C=C/c1ccccc1N1CCC(NC(=O)CC2CC2)CC1)NO [Example I-150] | < 1000 nM
11 | O=C(/C=C/c1ccccc1N1CCC(NC(=O)c2ccc(-n3cccc3)nc2)CC1)NO [Example I-160] | < 1000 nM
12 | CC(C)(C)OC(=O)NC1CCN(c2ccccc2/C=C/C(=O)NO)CC1 [Example I-60, tert-butyl (E)-(1-(2-(3-(hydroxyamino)-3-oxoprop-1-en-1-yl)phenyl)piperidin-4-yl)carbamate] | < 1000 nM
13 | O=C(/C=C/c1ccccc1N1CCC(NC(=O)c2cccnc2)CC1)NO [Example I-132] | < 1000 nM
14 | O=C(/C=C/c1ccccc1NCc1ccc(-c2ccccc2)c(C(F)(F)F)c1)NO [Example I-120, (E)-N-hydroxy-3-(2-(((2-(trifluoromethyl)-[1,1′-biphenyl]-4-yl)methyl)amino)phenyl)acrylamide] | < 1000 nM
15 | O=C(/C=C/c1ccccc1N1CCN(CC2CCOC2)CC1)NO (centres unmarked) [Example I-167, (E)-N-hydroxy-3-(2-(4-((tetrahydrofuran-3-yl)methyl)piperazin-1-yl)phenyl)acrylamide] | < 1000 nM
16 | O=C(/C=C/c1ccccc1NC(=O)C1CCCCC1)NO [Example I-56, (E)-N-(2-(3-(hydroxyamino)-3-oxoprop-1-en-1-yl)phenyl)cyclohexanecarboxamide] | < 1000 nM
17 | O=C(/C=C/c1ccccc1N1CCC(NC(=O)c2ccc3cnccc3n2)CC1)NO [Example I-147, (E)-N-(1-(2-(3-(hydroxyamino)-3-oxoprop-1-en-1-yl)phenyl)piperidin-4-yl)-1,6-naphthyridine-2-carboxamide] | < 1000 nM

Other lines, results leading:

Row | IC50 | SMILES
18 | < 1000 nM | O=C(/C=C/c1ccccc1N1CCC(NCc2nc3ccccc3s2)CC1)NO [Example I-192, (E)-3-(2-(4-((benzo[d]thiazol-2-ylmethyl)amino)piperidin-1-yl)phenyl)-N-hydroxyacrylamide]
19 | < 1000 nM | COc1ccc(OC)c(S(=O)(=O)NC2CCN(c3ccccc3/C=C/C(=O)NO)CC2)c1 [Example I-242, (E)-3-(2-(4-((2,5-dimethoxyphenyl)sulfon-amido)piperidin-1-yl)phenyl)-N-hydroxyacrylamide]
20 | < 1000 nM | O=C(/C=C/c1ccccc1N1CC2CC1CN2C(=O)Cc1ccc(Cl)cc1)NO [Example I-316, (E)-3-(2-((1S,4S)-5-(2-(4-chlorophenyl)acetyl)-2,5-diazabicyclo[2.2.1]heptan-2-yl)pheynyl)-N-hydroxyacrylamide]
21 | < 1000 nM | O=C(/C=C/c1ccccc1N1CCC(NS(=O)(=O)c2ccc(C(F)(F)F)nc2)CC1)NO [Example I-226, (E)-N-hydroxy-3-(2-(4-((6-(trifluoromethyl)pyridine)-3-sulfonamido)piperidin-1-yl)phenyl)acrylamide]
22 | < 1000 nM | COc1ccc(S(=O)(=O)NC2CCN(c3ccccc3/C=C/C(=O)NO)CC2)cc1OC [Example I-233]
23 | < 1000 nM | Cc1nn(C)c(Cl)c1S(=O)(=O)NC1CCN(c2ccccc2/C=C/C(=O)NO)CC1 [Example I-218, (E)-3-(2-(4-((5-chloro-1,3-dimethyl-1H-pyrazole)-4-sulfonamido)piperidin-1-yl)phenyl)-N-hydroxyacrylamide]
24 | < 1000 nM | O=C(/C=C/c1ccccc1N1CCC(NS(=O)(=O)Cc2cccc(Cl)c2)CC1)NO [Example I-229, (E)-3-(2-(4-(((3-chlorophenyl)methyl)sul-fonamido)piperidin-1-yl)phenyl)-N-hydroxyacrylamide]
25 | < 1000 nM | O=C(/C=C/c1ccccc1N1CCN(c2ccccc2)C1=O)NO [Example I-302, (E)-N-hydroxy-3-(2-(2-oxo-3-phenylimidazolidin-1-yl)phenyl)acrylamide]
26 | < 1000 nM | O=C(/C=C/c1ccccc1N1CCC(NS(=O)(=O)c2cccc3cnccc23)CC1)NO [Example I-232, (E)-N-hydroxy-3-(2-(4-(isoquinoline-5-sulfonamido)piperidin-1-yl)phenyl)acrylamide]
27 | < 1000 nM | CN(Cc1cccc(C(F)(F)F)c1)C(=O)c1ccccc1/C=C/C(=O)NO [II-18]
28 | < 1000 nM | O=C(/C=C/c1ccccc1N1CCN(S(=O)(=O)c2cccc3cnccc23)CC1)NO [Example I-254, (E)-N-hydroxy-3-(2-(4-(isoquinolin-5-ylsulfonyl)piperazin-1-yl)phenyl)acrylamide]
29 | < 1000 nM | Cn1cnc(S(=O)(=O)N2CCN(c3ccccc3/C=C/C(=O)NO)CC2)c1 [Example I-258, (E)-N-hydroxy-3-(2-(4-((1-methyl-1H-imidazol-4-yl)sulfonyl)piperazin-1-yl)phenyl)acrylamide]
30 | < 1000 nM | O=C(/C=C/c1ccccc1C(=O)NC1CCCCC1)NO [II-13, (E)-N-cyclohexyl-2-(3-(hydroxyamino)-3-oxoprop-1-en-1-yl)benzamide]
31 | < 1000 nM | O=C(/C=C/c1ccccc1N1CCN(C(=O)C2(c3ccc(Cl)cc3)CC2)CC1)NO [Example I-294, (E)-3-(2-(4-(1-(4-chlorophenyl)cyclopropane-1-carbonyl)piperazin-1-yl)phenyl)-N-hydroxyacrylamide]
32 | < 1000 nM | O=C(/C=C/c1ccccc1N1CCN(CCCC(F)(F)F)CC1)NO [Example I-184, (E)-N-hydroxy-3-(2-(4-(4,4,4-trifluorobutyl)piperazin-1-yl)phenyl)acrylamide]
